Data: US8076487B2, “Pyridone derivative and herbicide” (Kumiai Chemical Industry Co., Ltd., priority 2006, dated 2011)

What was measured:
Type in all cases: in vivo
[1] = tested on: slender amaranth (Amaranthus viridis L.); assay: Test Example 3: herbicidal effect by application to upland field (foliage treatment); conditions: foliage treatment, 1,000 g active ingredient per 1 hectare, 14th day after application, greenhouse
In short: (§1)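 A single foliar application of a water-diluted wettable powder, at 1,000 g of active ingredient per hectare, was made to plants raised for two weeks from seed in field soil. Herbicidal activity was judged visually after a further 14 days in the greenhouse.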

[2] = tested on: green foxtail (Setaria viridis (L.) P. Beauv.); assay: as above; conditions: foliage treatment, 1,000 g active ingredient per 1 hectare, 14th day after application, greenhouse
In short: as §1

[3] = tested on: barnyardgrass (Echinochloa crus-galli (L.) P. Beauv. var. crus-galli); assay: as above; conditions: foliage treatment, 1,000 g active ingredient per 1 hectare, 14th day after application, greenhouse
In short: as §1

[4] = tested on: velvetleaf (Abutilon theophrasti medicus); assay: as above; conditions: foliage treatment, 1,000 g active ingredient per 1 hectare, 14th day after application, greenhouse
In short: as §1

[5] = tested on: slender amaranth (Amaranthus viridis L.); assay: Test Example 2: herbicidal effect by soil application to upland field; conditions: soil surface spray, upland field soil, 1,000 g active ingredient per hectare, 21st day after application
In short: (§2)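 Using a small sprayer, we treat the soil surface of pots just after sowing and covering seeds. The aqueous wettable powder supplies 1,000 g a.i./ha in 1,000 L water/ha; after greenhouse growth, injury is scored on day 21 using a standard rating.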

[6] = tested on: green foxtail (Setaria viridis (L.) P. Beauv.); assay: as above; conditions: soil surface spray, upland field soil, 1,000 g active ingredient per hectare, 21st day after application
In short: as §2

[7] = tested on: barnyardgrass (Echinochloa crus-galli (L.) P. Beauv. var. crus-galli); assay: as above; conditions: soil surface spray, upland field soil, 1,000 g active ingredient per hectare, 21st day after application
In short: as §2

[8] = tested on: velvetleaf (Abutilon theophrasti medicus); assay: as above; conditions: soil surface spray, upland field soil, 1,000 g active ingredient per hectare, 21st day after application
In short: as §2

[9] = tested on: early watergrass (Echinochloa oryzicola Vasing); assay: Test Example 1: herbicidal effect by soil application to paddy field; conditions: paddy field soil application; active ingredient 1,000 g per 1 hectare; wettable powder added dropwise to water surface the day after sowing; examined on the 21st day after application
In short: (§3)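 Under greenhouse conditions, seeds sown on puddled paddy soil in 100 cm2 pots under 3 cm of standing water received the test compound; injury was assessed with a standard scoring scheme three weeks (day 21) after treatment.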

[10] = tested on: Japanese bulrush (Scirpus juncoides Roxb.); assay: as above; conditions: paddy field soil application; active ingredient 1,000 g per 1 hectare; wettable powder added dropwise to water surface the day after sowing; examined on the 21st day after application
In short: as §3

[11] = tested on: heartshape false pickerelweed (Monochoria vaginalis (Burm.f.) C.Presl); assay: as above; conditions: paddy field soil application; active ingredient 1,000 g per 1 hectare; wettable powder added dropwise to water surface the day after sowing; examined on the 21st day after application
In short: as §3

CCc1ccc(C(=O)C2=C(O)CCCC2=O)c(=O)n1-c1ccccc1 [I-230]
herbicidal effect, Slender Amaranth [1]: 5 (90% or more of herbicidal effect and crop phytotoxicity) | herbicidal effect, Green Foxtail [2]: 4 (70 to less than 90% of herbicidal effect and crop phytotoxicity) | herbicidal effect, Barnyardgrass [3]: 5 (90% or more of herbicidal effect and crop phytotoxicity) | herbicidal effect, Velvetleaf [4]: 5 (90% or more of herbicidal effect and crop phytotoxicity) | herbicidal effect (index), Slender Amaranth [5]: 5 (90% or more of herbicidal effect and crop phytotoxicity) | herbicidal effect (index), Green Foxtail [6]: 5 (90% or more of herbicidal effect and crop phytotoxicity) | herbicidal effect (index), Barnyardgrass [7]: 4 (70 to less than 90% of herbicidal effect and crop phytotoxicity) | herbicidal effect (index), Velvetleaf [8]: 5 (90% or more of herbicidal effect and crop phytotoxicity) | herbicidal effect, Echinochloa oryzicola Vasing [9]: 5 (90% or more of herbicidal effect and crop phytotoxicity) | herbicidal effect, Scirpus juncoides Roxb. [10]: 5 (90% or more of herbicidal effect and crop phytotoxicity) | herbicidal effect, Monochoria vaginalis (Burm. f.) C. Presl [11]: 5 (90% or more of herbicidal effect and crop phytotoxicity)

Cc1cccc(-n2cccc(C(=O)C3=C(O)CCCC3=O)c2=O)c1 [I-238]
herbicidal effect, Slender Amaranth [1]: 5 (90% or more of herbicidal effect and crop phytotoxicity) | herbicidal effect, Green Foxtail [2]: 4 (70 to less than 90% of herbicidal effect and crop phytotoxicity) | herbicidal effect, Barnyardgrass [3]: 5 (90% or more of herbicidal effect and crop phytotoxicity) | herbicidal effect, Velvetleaf [4]: 5 (90% or more of herbicidal effect and crop phytotoxicity) | herbicidal effect (index), Slender Amaranth [5]: 5 (90% or more of herbicidal effect and crop phytotoxicity) | herbicidal effect (index), Green Foxtail [6]: 4 (70 to less than 90% of herbicidal effect and crop phytotoxicity) | herbicidal effect (index), Barnyardgrass [7]: 5 (90% or more of herbicidal effect and crop phytotoxicity) | herbicidal effect (index), Velvetleaf [8]: 5 (90% or more of herbicidal effect and crop phytotoxicity) | herbicidal effect, Echinochloa oryzicola Vasing [9]: 5 (90% or more of herbicidal effect and crop phytotoxicity) | herbicidal effect, Scirpus juncoides Roxb. [10]: 5 (90% or more of herbicidal effect and crop phytotoxicity) | herbicidal effect, Monochoria vaginalis (Burm. f.) C. Presl [11]: 5 (90% or more of herbicidal effect and crop phytotoxicity)

N#Cc1ccc(C(=O)C2=C(O)CCCC2=O)c(=O)n1-c1ccccc1 [I-243]
herbicidal effect, Slender Amaranth [1]: 5 (90% or more of herbicidal effect and crop phytotoxicity) | herbicidal effect, Green Foxtail [2]: 5 (90% or more of herbicidal effect and crop phytotoxicity) | herbicidal effect, Barnyardgrass [3]: 5 (90% or more of herbicidal effect and crop phytotoxicity) | herbicidal effect, Velvetleaf [4]: 5 (90% or more of herbicidal effect and crop phytotoxicity) | herbicidal effect (index), Slender Amaranth [5]: 5 (90% or more of herbicidal effect and crop phytotoxicity) | herbicidal effect (index), Green Foxtail [6]: 5 (90% or more of herbicidal effect and crop phytotoxicity) | herbicidal effect (index), Barnyardgrass [7]: 5 (90% or more of herbicidal effect and crop phytotoxicity) | herbicidal effect (index), Velvetleaf [8]: 5 (90% or more of herbicidal effect and crop phytotoxicity) | herbicidal effect, Echinochloa oryzicola Vasing [9]: 5 (90% or more of herbicidal effect and crop phytotoxicity) | herbicidal effect, Scirpus juncoides Roxb. [10]: 5 (90% or more of herbicidal effect and crop phytotoxicity) | herbicidal effect, Monochoria vaginalis (Burm. f.) C. Presl [11]: 5 (90% or more of herbicidal effect and crop phytotoxicity)

CC1CC(C)(C)C(O)=C(C(=O)c2ccc(C(F)(F)F)n(C)c2=O)C1=O (centres unmarked) [II-5]
herbicidal effect, Slender Amaranth [1]: 4 (70 to less than 90% of herbicidal effect and crop phytotoxicity) | herbicidal effect, Green Foxtail [2]: 3 (50 to less than 70% of herbicidal effect and crop phytotoxicity) | herbicidal effect, Barnyardgrass [3]: 4 (70 to less than 90% of herbicidal effect and crop phytotoxicity) | herbicidal effect, Velvetleaf [4]: 5 (90% or more of herbicidal effect and crop phytotoxicity) | herbicidal effect (index), Slender Amaranth [5]: 5 (90% or more of herbicidal effect and crop phytotoxicity) | herbicidal effect (index), Green Foxtail [6]: 5 (90% or more of herbicidal effect and crop phytotoxicity) | herbicidal effect (index), Barnyardgrass [7]: 5 (90% or more of herbicidal effect and crop phytotoxicity) | herbicidal effect (index), Velvetleaf [8]: 5 (90% or more of herbicidal effect and crop phytotoxicity) | herbicidal effect, Echinochloa oryzicola Vasing [9]: 5 (90% or more of herbicidal effect and crop phytotoxicity) | herbicidal effect, Scirpus juncoides Roxb. [10]: 5 (90% or more of herbicidal effect and crop phytotoxicity) | herbicidal effect, Monochoria vaginalis (Burm. f.) C. Presl [11]: 5 (90% or more of herbicidal effect and crop phytotoxicity)

C=CCn1c(C(F)(F)F)ccc(C(=O)C2=C(OC)CCCC2=O)c1=O [II-25]
herbicidal effect, Slender Amaranth [1]: 5 (90% or more of herbicidal effect and crop phytotoxicity) | herbicidal effect, Green Foxtail [2]: 5 (90% or more of herbicidal effect and crop phytotoxicity) | herbicidal effect, Barnyardgrass [3]: 5 (90% or more of herbicidal effect and crop phytotoxicity) | herbicidal effect, Velvetleaf [4]: 5 (90% or more of herbicidal effect and crop phytotoxicity) | herbicidal effect (index), Slender Amaranth [5]: 5 (90% or more of herbicidal effect and crop phytotoxicity) | herbicidal effect (index), Green Foxtail [6]: 5 (90% or more of herbicidal effect and crop phytotoxicity) | herbicidal effect (index), Barnyardgrass [7]: 5 (90% or more of herbicidal effect and crop phytotoxicity) | herbicidal effect (index), Velvetleaf [8]: 5 (90% or more of herbicidal effect and crop phytotoxicity) | herbicidal effect, Echinochloa oryzicola Vasing [9]: 5 (90% or more of herbicidal effect and crop phytotoxicity) | herbicidal effect, Scirpus juncoides Roxb. [10]: 5 (90% or more of herbicidal effect and crop phytotoxicity) | herbicidal effect, Monochoria vaginalis (Burm. f.) C. Presl [11]: 5 (90% or more of herbicidal effect and crop phytotoxicity)

COCCn1c(C(F)(F)F)ccc(C(=O)C2=C(O)C(C)(C)CCC2=O)c1=O [II-29]
herbicidal effect, Slender Amaranth [1]: 5 (90% or more of herbicidal effect and crop phytotoxicity) | herbicidal effect, Green Foxtail [2]: 5 (90% or more of herbicidal effect and crop phytotoxicity) | herbicidal effect, Barnyardgrass [3]: 5 (90% or more of herbicidal effect and crop phytotoxicity) | herbicidal effect, Velvetleaf [4]: 5 (90% or more of herbicidal effect and crop phytotoxicity) | herbicidal effect (index), Slender Amaranth [5]: 5 (90% or more of herbicidal effect and crop phytotoxicity) | herbicidal effect (index), Green Foxtail [6]: 5 (90% or more of herbicidal effect and crop phytotoxicity) | herbicidal effect (index), Barnyardgrass [7]: 5 (90% or more of herbicidal effect and crop phytotoxicity) | herbicidal effect (index), Velvetleaf [8]: 5 (90% or more of herbicidal effect and crop phytotoxicity) | herbicidal effect, Echinochloa oryzicola Vasing [9]: 5 (90% or more of herbicidal effect and crop phytotoxicity) | herbicidal effect, Scirpus juncoides Roxb. [10]: 5 (90% or more of herbicidal effect and crop phytotoxicity) | herbicidal effect, Monochoria vaginalis (Burm. f.) C. Presl [11]: 5 (90% or more of herbicidal effect and crop phytotoxicity)

COCCOCCn1c(C(F)(F)F)ccc(C(=O)C2=C(O)C(C)(C)CCC2=O)c1=O [II-31]
herbicidal effect, Slender Amaranth [1]: 5 (90% or more of herbicidal effect and crop phytotoxicity) | herbicidal effect, Green Foxtail [2]: 5 (90% or more of herbicidal effect and crop phytotoxicity) | herbicidal effect, Barnyardgrass [3]: 5 (90% or more of herbicidal effect and crop phytotoxicity) | herbicidal effect, Velvetleaf [4]: 5 (90% or more of herbicidal effect and crop phytotoxicity) | herbicidal effect (index), Slender Amaranth [5]: 5 (90% or more of herbicidal effect and crop phytotoxicity) | herbicidal effect (index), Green Foxtail [6]: 5 (90% or more of herbicidal effect and crop phytotoxicity) | herbicidal effect (index), Barnyardgrass [7]: 5 (90% or more of herbicidal effect and crop phytotoxicity) | herbicidal effect (index), Velvetleaf [8]: 5 (90% or more of herbicidal effect and crop phytotoxicity) | herbicidal effect, Echinochloa oryzicola Vasing [9]: 5 (90% or more of herbicidal effect and crop phytotoxicity) | herbicidal effect, Scirpus juncoides Roxb. [10]: 5 (90% or more of herbicidal effect and crop phytotoxicity) | herbicidal effect, Monochoria vaginalis (Burm. f.) C. Presl [11]: 5 (90% or more of herbicidal effect and crop phytotoxicity)
